Read-outs that look alike come from different tables or passages of the source.
What was measured:
Test in all cases: MTT cell proliferation assay
Assay type in all cases: cell-based, human
[1] = tested on: 1205 Lu; details: 3 days, read-out: Cytotoxic effect (MTT) IC50
Description: (§1) Growth studies were performed using the [3-(4,5 dimethylthiazol-2-yl)-2,5-diphenyl-2H-tetrazolium bromide] (Sigma) calorimetric assay.
(§2) About 1500 to 5000 cells, according to the cell line, were seeded in a 96-well culture plate 24 hours before adding increasing concentrations of BA016DD537 or BA016FZ539. The plate was incubated at 37° C. for 3 days. 10 μl MTT stock solution (5 mg/ml in phosphate buffer saline) was added to 90 μl of complete medium in each well, the incubation was continued for 3 h at 37° C. 100 μl of lysis buffer (10% sodium dodecyl sulfate, 1% HCl 1N; pH 4.7) was added to each well, and the plate was incubated overnight. The absorbance was determined using an Integrated EIA Management System (Labsystem) at a wavelength of 570 nm. The proliferation rates were calculated from the OD readings using the untreated cells as 100%.

[2] = tested on: A375; details: A375, 3 days; read-out: Cytotoxic effect (MTT) IC50
Description: as §1, §2

[3] = tested on: Mia Paca-2
Description: as §1, §2

[4] = tested on: PANC-1
Description: as §1, §2

[5] = tested on: 451 Lu; details: 3 days, read-out: Cytotoxic effect (MTT) IC50
Description: as §1, §2

With `CS(=O)(=O)[O-].Cc1c2cc[n+](CCN3CCCCC3)cc2c(C)c2c1[nH]c1ccc(O)cc12` [BA016FZ539, 2-(betapiperidino-2-ethyl)-9-hydroxyellipticinium methanesulfonate] as the compound, how does the IC50 [1] read?
The IC50 was 1.6 µM.

And the IC50 [2]?
Its IC50 is 2.9 µM.

And the IC50 ([3]; MIA PaCA-2, viability 72 h, mean +/− SEM (Example 9), read-out: IC50 (μM) MTT)?
The IC50 was 7.58 µM.

What about the IC50 ([3]; Mia Paca-2, 3 days, read-out: Cytotoxic effect (MTT) IC50) of the same compound?
The IC50 was 7.6 µM.

What about the IC50 ([4]; PANC-1, 3 days, read-out: Cytotoxic effect (MTT) IC50) of the same compound?
Its IC50 is 22 µM.

And the IC50 ([4]; PANC-1, viability 72 h (Example 9), read-out: IC50 (μM) MTT)?
Its IC50 is 22 µM.

What about the IC50 [5] of the same compound?
Its IC50 is 4.2 µM.

Source: US20090197906A1, “REVERSION OF MALIGNANT PHENOTYPE WITH 9-HYDROXY ELLIPTICINE DERIVATIVES” (priority 2006, published 2009)
